This is an account of results in patent publication US20240208954A1, “OXADIAZOLE COMPOUND, PREPARATION METHOD THEREFOR, PHARMACEUTICAL COMPOSITION AND USE THEREOF” (SHANGHAI INSTITUTE OF MATERIA MEDICA, CHINESE ACADEMY OF …, priority 2020, published 2024).

The EC50 is the concentration giving half of the maximal effect.

What all share (format): cell-based
For one assay, the target named is T1, S1PR1 (Homo sapiens, UniProt P21453).
T1 construct: host or cells: CHO-K1 co-expressing Ga15
As to the kind of experiment: Agonistic activity test on S1P receptors, FLIPR, CHO-K1/Ga15/EDG1 cells. On the procedure:
(§1) Instrument: FLIPR™ TETRA (Molecular Device)
Experimental materials: CHO-K1/Ga15/EDG1 cells constructed by GenScript autonomously.
(§2) Sample processing: Before the experiment, the working solution with the corresponding concentration was prepared by diluting with GPCR dilution buffer.
(§3) After 18-20 hours, the cell culture plat was taken out and added with dye working solution, and then the plate was placed in a 37° C./5% CO2 incubator for 1 hour, and finally equilibrated at room temperature for 15 minutes. Positive agonist working solution was added, and RFU values were detected and recorded. […] The positive agonist working fluid was added to the cell culture plate at the 21st second. […] The antagonistic mode detection program, the overall detection time of the instrument was 120 seconds, and positive antagonist working solution was added to the cell culture plate at the 21st second.
(§4) Data processing: Raw data were obtained via ScreenWorks (version 3.1) and saved as *FMD files on the Kingsray computer network system. Data were collected and analyzed using Excel and GraphPad Prism 6 software programs. For each well, the average fluorescence intensity value from 1 to 20 seconds was used as the baseline, and the maximum fluorescence intensity value from 21 to 120 seconds minus the minimum fluorescence intensity value from 21 to 120 seconds was the relative fluorescence intensity value (ARFU), from which the percentage activation or inhibition can be calculated based on the following equation.
(§5) % Activation Rate=(ΔRFUCompound-ΔRFUBackground)/(ΔRFUAgonist control-ΔRFUBackground)×100%
(§6) The data was analyzed using GraphPad Prism 6 with a four-parameter equation to calculate the EC50 and IC50 values. The four-parameter equation was as follows: y=Bottom+(Top-Bottom)/(1+10^((LogEC50/IC50-X)*HillSlope)), wherein X is the Log value of the concentration and Y was the inhibition rate.

The next assay addresses S1PR3 (Homo sapiens, UniProt Q99500). As to the kind of experiment: Agonistic activity test on S1P receptors, FLIPR. Here is the method: as §1, §2, §3, §4, §5, §6
In a further assay the target is S1P2 (Homo sapiens, UniProt O95136). As to the kind of experiment: Subtype selectivity study, method of Experimental Example 1. Here is the method:
(§7) Experimental method: CHO-K1/Ga15/EDG1 cells stably expressing EDG1 receptor were cultured in a 10 cm culture dish in a 37° C./5% CO2incubator, and digested when the confluence rate reached 80%-85%. The cells in collected cell suspension were inoculated into 384 microtiter plates at appropriate density, and then placed in a 37° C./5% CO2 incubator and continue to incubate for at least 18 hours before using for experiments. After 18-20 hours, the cell culture plat was taken out and added with dye working solution, and then the plate was placed in a 37° C./5% CO2 incubator for 1 hour, and finally equilibrated at room temperature for 15 minutes. Positive agonist working solution was added, and RFU values were detected and recorded. The 384 microplates, cell plates and tip box with positive agonist working solution were placed into FLIPRTM TETRA and the agonist mode assay program was run with an overall assay time of 120 seconds. The positive agonist working fluid was added to the cell culture plate at the 21st second. 384 microplate, cell plate and gun head box containing the positive antagonist working fluid were put into the FLIPRTM TETRA. The antagonistic mode detection program, the overall detection time of the instrument was 120 seconds, and positive antagonist working solution was added to the cell culture plate at the 21st second. Data processing: Raw data were obtained via ScreenWorks (version 3.1) and saved as *FMD files on the […] computer network system. Data were collected and analyzed using Excel and GraphPad Prism 6 software programs. […] The four-parameter equation was as follows: y=Bottom+(Top-Bottom)/(1+10^((LogEC50/IC50-X)*HillSlope)), wherein X is the Log value of the concentration and Y was the inhibition rate. The S1P receptor selectivity was tested for different subtypes using the method described in Experimental Example 1.

For a further assay, the target named is T2, S1P4 (Homo sapiens, UniProt O95977).
T2 sequence (O95977 1-384): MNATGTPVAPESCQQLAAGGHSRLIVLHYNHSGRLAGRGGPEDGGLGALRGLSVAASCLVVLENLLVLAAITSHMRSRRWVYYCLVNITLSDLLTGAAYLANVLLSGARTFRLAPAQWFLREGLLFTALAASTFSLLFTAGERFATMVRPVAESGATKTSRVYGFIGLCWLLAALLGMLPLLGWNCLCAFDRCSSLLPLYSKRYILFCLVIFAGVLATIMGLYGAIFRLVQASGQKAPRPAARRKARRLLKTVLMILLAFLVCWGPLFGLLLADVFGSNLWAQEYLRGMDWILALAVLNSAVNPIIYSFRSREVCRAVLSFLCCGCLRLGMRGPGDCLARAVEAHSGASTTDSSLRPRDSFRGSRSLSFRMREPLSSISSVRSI
The description is as above. On the procedure:
as §7

Another assay concerns the target S1P5 (Homo sapiens, UniProt Q9H228). The assay is described as above. Here is the method: as §7
Where [1] appears, read: CHO-K1/Ga15/EDG1 cells, FLIPR agonist mode, read-out: S1PR1 EC50.
The mark [2] stands for this setting: FLIPR agonist mode, read-out: S1PR3 EC50.
Setting [3] is: subtype selectivity study, read-out: S1P3 EC50.

Where two headings read alike, the source gives them in different places.

T1 sequence (P21453 whole entry): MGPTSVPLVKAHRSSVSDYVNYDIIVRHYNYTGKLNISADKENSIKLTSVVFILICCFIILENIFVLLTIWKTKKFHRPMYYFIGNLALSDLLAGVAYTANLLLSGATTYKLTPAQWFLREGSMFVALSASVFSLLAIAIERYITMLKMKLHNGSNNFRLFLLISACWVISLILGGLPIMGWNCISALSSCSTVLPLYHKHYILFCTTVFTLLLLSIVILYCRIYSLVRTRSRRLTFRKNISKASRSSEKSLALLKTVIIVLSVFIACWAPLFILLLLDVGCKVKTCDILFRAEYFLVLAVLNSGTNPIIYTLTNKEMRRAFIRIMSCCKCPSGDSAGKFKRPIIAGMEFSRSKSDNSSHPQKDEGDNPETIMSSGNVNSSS
Chain of S1PR3 (Q99500 whole entry, species assumed): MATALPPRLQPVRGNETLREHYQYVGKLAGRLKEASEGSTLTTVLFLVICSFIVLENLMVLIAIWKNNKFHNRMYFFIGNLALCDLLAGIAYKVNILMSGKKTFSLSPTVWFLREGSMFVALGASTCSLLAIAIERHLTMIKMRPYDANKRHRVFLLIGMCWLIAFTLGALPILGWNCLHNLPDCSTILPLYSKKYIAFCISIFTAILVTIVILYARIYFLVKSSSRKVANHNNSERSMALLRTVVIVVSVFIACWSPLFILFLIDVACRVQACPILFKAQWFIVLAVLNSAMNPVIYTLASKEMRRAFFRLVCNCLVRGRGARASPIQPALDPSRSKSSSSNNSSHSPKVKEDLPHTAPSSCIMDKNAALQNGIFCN
Chain of S1P5 (Q9H228 whole entry, species assumed): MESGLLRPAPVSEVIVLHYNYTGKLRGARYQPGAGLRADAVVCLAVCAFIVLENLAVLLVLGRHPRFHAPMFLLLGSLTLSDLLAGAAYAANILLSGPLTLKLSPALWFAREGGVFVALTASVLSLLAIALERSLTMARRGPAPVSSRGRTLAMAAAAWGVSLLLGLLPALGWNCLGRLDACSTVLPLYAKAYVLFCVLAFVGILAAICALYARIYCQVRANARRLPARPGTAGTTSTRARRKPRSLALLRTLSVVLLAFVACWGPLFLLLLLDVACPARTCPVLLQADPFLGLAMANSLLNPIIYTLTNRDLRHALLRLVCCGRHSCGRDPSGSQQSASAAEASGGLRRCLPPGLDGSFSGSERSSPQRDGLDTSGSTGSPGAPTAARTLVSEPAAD
Chain of S1P2 (O95136 whole entry, species assumed): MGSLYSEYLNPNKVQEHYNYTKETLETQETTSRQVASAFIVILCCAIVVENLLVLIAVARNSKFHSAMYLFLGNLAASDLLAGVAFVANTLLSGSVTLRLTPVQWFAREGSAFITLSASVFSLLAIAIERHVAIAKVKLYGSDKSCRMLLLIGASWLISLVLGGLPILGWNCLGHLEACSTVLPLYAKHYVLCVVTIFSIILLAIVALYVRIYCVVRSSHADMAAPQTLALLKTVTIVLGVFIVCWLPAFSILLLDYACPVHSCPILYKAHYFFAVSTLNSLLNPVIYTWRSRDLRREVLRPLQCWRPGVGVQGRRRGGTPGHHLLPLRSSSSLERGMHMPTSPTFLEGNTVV

On to `O=C(O)C1CN(Cc2ccc(-c3noc(-c4ccc5[nH]ccc5c4)n3)c3ccccc23)C1` [Compound A35, 1-((4-(5-(1H-indole-5-yl)-1,2,4-oxadiazol-3-yl)naphthalen-1-yl)methyl) azetidine-3-carboxylic acid hydrochloric acid], for which the EC50 on S1PR1 (setting [1]) was 1.96 µM; at S1PR3 (setting [2]) it was greater than 10 µM.
Turning to `O=C(O)C1CN(Cc2ccc(-c3noc(-c4cc5ccccc5[nH]4)n3)c3ccccc23)C1` [Compound A36, 1-((4-(5-(1H-indole-2-yl)-1,2,4-oxadiazol-3-yl)naphthalen-1-yl)methyl) azetidine-3-carboxylic acid hydrochloric acid], the figures for the concentration giving a half-maximal response (EC50) on S1PR1 (setting [1]) and at S1PR3 (setting [2]) were 1.11 µM and greater than 10 µM, respectively.
With `Cn1c(-c2nc(-c3ccc(CN4CC(C(=O)O)C4)c4ccccc34)no2)cc2ccccc21` [Compound A37, 1-((4-(5-(1-methyl-1H-indole-2-yl)-1,2,4-oxadiazol-3-yl)naphthalen-1-yl)methyl) azetidine-3-carboxylic acid hydrochloric acid], the half-maximal effective concentration (EC50) on S1PR1 (CHO-K1/Ga15/EDG1 cells, FLIPR agonist mode, cells printed in μM, read-out: S1PR1 EC50) is greater than 10 µM; at S1PR3 (setting [2]) it was greater than 10 µM.
Turning to `O=C(O)C1CN(Cc2ccc(-c3noc(/C=C/c4ccccc4)n3)c3ccccc23)C1` [Compound A38, (E)-1-((4-(5-styryl-1,2,4-oxadiazol-3-yl)naphthalen-1-yl)methyl) azetidine-3-carboxylic acid hydrochloric acid], the EC50 on S1PR1 (setting [1]) is 1.42 µM; on S1PR3 (setting [2]), greater than 10 µM.
In the same order, the values of `O=C(O)C1CN(Cc2ccc(-c3noc(C4CCCCC4)n3)c3ccccc23)C1` [Compound A39, 1-((4-(5-cyclohexyl-1,2,4-oxadiazol-3-yl)naphthalen-1-yl)methyl) azetidine-3-carboxylic acid hydrochloric acid] are 0.831 µM and greater than 10 µM.
For `CC(C)Oc1ccc(-c2nc(-c3cccc4c3CC[C@@H]4NCCO)no2)cc1C#N` [Ozanimod], the EC50 is greater than 10 µM at S1PR3 (setting [2]); 2.62 µM on S1PR3 (setting [3]); greater than 10 µM on S1P2; greater than 10000 nM at S1P4; 10.7 nM at S1P5.
In the case of `CCc1cc(/C(C)=N/OCc2ccc(C3CCCCC3)c(C(F)(F)F)c2)ccc1CN1CC(C(=O)O)C1` [Siponmod, reference compound], the EC50 was 0.547 µM at S1PR1 (setting [1]); 0.547 µM at S1PR1 (subtype selectivity study, read-out: S1P1 EC50); greater than 10 µM on S1PR3 (setting [2]); greater than 1 µM on S1PR3 (setting [3]); greater than 10 µM on S1P2; 750 nM at S1P4. The compound further yielded an EC50 on S1P5 of 0.98 nM.
